Assay results: patent US9980973B2, “Bicyclic heterocycle compounds and their uses in therapy” (ASTEX THERAPEUTICS LIMITED, priority 2012, dated 2018)
Where a name gives a salt, the structure may show the parent alone. Read-outs that look alike come from different tables or passages of the source.

Assays:
[1] = target: T1, BIR3 domain of human XIAP (Homo sapiens, UniProt P98170); assay: XIAP in vitro competitive displacement binding assay (fluorescence polarization); conditions: for inhibition at 0.04 µM: 1 h, read-out: Xiap IC50 or PI μM (PI); for inhibition at 0.04 µM / Xiap IC50 or PI μM (PI): PI at 0.04 μM
T1 construct: BIR3 domain of human XIAP (residues 252-350) fused to a His-tag; His-tag (cleaved yes); made in house; host or cells: Escherichia coli
T1 sequence (P98170 252-350): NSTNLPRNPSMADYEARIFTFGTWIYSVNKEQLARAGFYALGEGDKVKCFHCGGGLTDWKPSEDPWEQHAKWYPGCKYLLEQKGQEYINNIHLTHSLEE

[2] = target: T2, BIR3 domain of human cIAP-1 (Homo sapiens, UniProt Q13490); assay: cIAP-1 in vitro competitive displacement binding assay (fluorescence polarization); conditions: PI at […]
T2 construct: human cIAP-1 (residues 267-363) fused to a GST-tag; GST-tag (cleaved yes); made in house; host or cells: Escherichia coli
T2 sequence (Q13490 267-363): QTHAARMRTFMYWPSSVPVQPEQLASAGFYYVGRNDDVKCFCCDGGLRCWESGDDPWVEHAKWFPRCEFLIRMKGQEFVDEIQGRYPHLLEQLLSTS

[3] = system: EVSA-T (human breast carcinoma); assay: Anti-proliferative activity, Alamar Blue assay, EVSA-T; assay type: cell-based
[4] = EVSA-T cells, 72 hours, Alamar Blue, dihydrochloride, read-out: EVSA-T prolif
[5] = Homo sapiens, EVSA-T, read-out: EC50 in EVSA-T cell line assays
[6] = plain number = IC50, average where more than one data point, read-out: Xiap IC50 or PI μM (IC50)
[7] = EVSA-T cells, 72 hours, Alamar Blue, hydrochloride, read-out: EVSA-T prolif
[8] = 60 min, dihydrochloride, 0.04 µM
[9] = EVSA-T cells, 72 hours, Alamar Blue, read-out: EVSA-T prolif

## COCC1(C)COCCN1C[C@H]1CN[C@H](C)CN1CC(=O)N1CC(C)(C)c2ncc(Cc3ccc(F)cc3)cc21 (single isomer, unassigned) [Example 100, dihydrochloride]
[1]
  inhibition at 0.04 µM: 56%
[1]; or at least 50% inhibition of the activity at 0.1 μM, read-out: IC50 in the XIAP assay
  IC50: < 0.1 µM
[2]; 180 min, dihydrochloride, […]
  cIAP1 IC50 or PI μM (PI): 99%@0.012
[3]; [4]
  EC50: 0.92 nM
[3]; [5]
  EC50: < 1000 nM

## C[C@@H]1CN(CC(=O)N2CC(C)(C)c3ncc(Cc4ccc(F)cc4)cc32)[C@@H](CN2CCOCC2C(F)(F)F)CN1 (single isomer, unassigned) [Example 27, 1-{6-[(4-Fluorophenyl)methyl]-3,3-dimethyl-1H,2H,3H-pyrrolo[3,2-b]pyridin-1-yl}-2-[(2R,5R)-5-methyl-2-{[3-([R or S]trifluoromethyl)morpholin-4-yl]methyl}piperazin-1-yl]ethan-1-one hydrochloride]
[1]; [6]
  IC50: 0.13 µM
[2]; 180 min, hydrochloride, […]
  cIAP1 IC50 or PI μM (PI): 90%@0.012
[3]; [7]
  EC50: 15 nM

## C[C@@H]1CN(CC(=O)N2CC(C)(C)c3ncc(C(O)c4cccc(F)c4)cc32)[C@@H](CN2[C@H](C)COC[C@H]2C)CN1 (single isomer, unassigned) [Example 106, 2-[(2R,5R)-2-{[(3R,5R)-3,5-Dimethylmorpholin-4-yl]methyl}-5-methylpiperazin-1-yl]-1-{6-[(R or S)-(3-fluorophenyl)-(hydroxy)methyl]-3,3-dimethyl-1H,2H,3H-pyrrolo[3,2-b]pyridin-1-yl}ethan-1-one dihydrochloride]
[1]; [8]
  Xiap IC50 or PI μM (PI): 42%@0.04
[2]; 180 min, dihydrochloride, […]
  cIAP1 IC50 or PI μM (PI): 88%@0.012
[3]; [4]
  EC50: 4.3 nM

## C[C@@H]1CN(CC(=O)N2CC(C)(C)c3cnc(Cc4ccc(F)cc4)cc32)[C@@H](CN2CCOC[C@]2(C)CO)CN1.Cl.Cl [Example 61, 1-{6-[(4-Fluorophenyl)methyl]-3,3-dimethyl-1H,2H,3H-pyrrolo[3,2-c]pyridin-1-yl}-2-[(2R,5R)-2-{[(3S)-3-(hydroxymethyl)-3-methylmorpholin-4-yl]methyl}-5-methylpiperazin-1-yl]ethan-1-one, dihydrochloride]
[1]
  Xiap IC50 or PI μM (PI): 57%@0.04
[2]
  cIAP1 IC50 or PI μM (PI): 99%@0.012
[3]; [9]
  EC50: 6 nM

## C[C@@H]1CN(CC(=O)N2CC(C)(C)c3ncc(Cc4ccc(F)cc4)cc32)[C@@H](CN2CCCCC2C(F)(F)F)CN1 (single isomer, unassigned) [Example 26, 1-{6-[(4-Fluorophenyl)methyl]-3,3-dimethyl-1H,2H,3H-pyrrolo[3,2-b]pyridin-1-yl}-2-[(2R,5R)-5-methyl-2-{[2-([R or S]trifluoromethyl)piperidin-1-yl]methyl}piperazin-1-yl]ethan-1-one hydrochloride]
[1]; [6]
  IC50: 0.21 µM
[2]; 180 min, hydrochloride, […]
  cIAP1 IC50 or PI μM (PI): 94%@0.012
[3]; [7]
  EC50: 120 nM

## C[C@@H]1CN(CC(=O)N2CC(C)(C)c3ncc(C(O)c4ccccc4F)cc32)[C@@H](CN2[C@H](C)COC[C@H]2C)CN1 (single isomer, unassigned) [Example 108, 2-[(2R,5R)-2-{[(3R,5R)-3,5-Dimethylmorpholin-4-yl]methyl}-5-methylpiperazin-1-yl]-1-{6-[(R or S)-(2-fluorophenyl)-(hydroxy)methyl]-3,3-dimethyl-1H,2H,3H-pyrrolo[3,2-b]pyridin-1-yl}ethan-1-one dihydrochloride]
[1]; [8]
  Xiap IC50 or PI μM (PI): 66%@0.04
[2]; 180 min, dihydrochloride, […]
  cIAP1 IC50 or PI μM (PI): 97%@0.012
[3]; [4]
  EC50: 2.7 nM

## C[C@@H]1CN(CC(=O)N2CC(C)(C)c3ncc(C(O)c4cccc(F)c4F)cc32)[C@@H](CN2[C@H](C)COC[C@H]2C)CN1 (single isomer, unassigned) [Example 112, (R or S)-1-{6-[(2,3-Difluorophenyl)(hydroxy)meth-yl]-3,3-dimethyl-1H,2H,3H-pyrrolo[3,2-b]pyridin-1-yl}-2-[(2R,5R)-2-{[(3R,5R)-3,5-dimethylmorpholin-4-yl]methyl}-5-methylpiperazin-1-yl]ethan-1-one dihdrochloride]
[1]; 60 min, 0.04 µM
  Xiap IC50 or PI μM (PI): 47%@0.04
[2]; 180 min, […]
  cIAP1 IC50 or PI μM (PI): 90%@0.012
[3]; [9]
  EC50: 20 nM

## C[C@@H]1CN(CC(=O)N2CC(C)(C)c3ncc(C(O)c4ccccc4F)cc32)[C@@H](CN2[C@H](C)COC[C@H]2C)CN1 (single isomer, unassigned) [Example 107, 2-[(2R,5R)-2-{[(3R,5R)-3,5-Dimethylmorpholin-4-yl]methyl}-5-methylpiperazin-1-yl]-1-{6-[(R or S)-(2-fluorophenyl)-(hydroxy)methyl]-3,3-dimethyl-1H,2H,3H-pyrrolo[3,2-b]pyridin-1-yl}ethan-1-one dihydrochloride]
[1]
  inhibition at 0.04 µM: 57%
[3]; [4]
  EC50: 7.1 nM
[3]; [5]
  EC50: < 1000 nM

## C[C@@H]1CN(CC(=O)N2CC(C)(C)c3ncc(C(O)c4cc(F)ccc4F)cc32)[C@@H](CN2[C@H](C)COC[C@H]2C)CN1 (single isomer, unassigned) [Example 116, 1-{(R or S)-6-[(2,5-Difluorophenyl)(hydroxy)meth-yl]-3,3-dimethyl-1H,2H,3H-pyrrolo[3,2-b]pyridin-1-yl}-2-[(2R,5R)-2-{[(3R,5R)-3,5-dimethylmorpholin-4-yl]methyl}-5-methylpiperazin-1-yl]ethan-1-one dihydrochloride]
[1]
  inhibition at 0.04 µM: 47%
[3]; [4]
  EC50: 55 nM

## C[C@@H]1CN(CC(=O)N2CC(C)(C)c3cnc(Cc4ccc(F)cc4)cc32)[C@@H](CN2CCOC[C@@]2(C)CO)CN1 [Example 62, 1-{6-[(4-Fluorophenyl)methyl]-3,3-dimethyl-1H,2H,3H-pyrrolo[3,2-c]pyridin-1-yl}-2-[(2R,5R)-2-{[(3R)-3-(hydroxymethyl)-3-methylmorpholin-4-yl]methyl}-5-methylpiperazin-1-yl]ethan-1-one, dihydrochloride]
[1]
  inhibition at 0.04 µM: 60%
[3]; Homo sapiens, EVSA-T, 72 h, EVSA-T cells, 72 hours, Alamar Blue, read-out: EVSA-T prolif
  EC50: 1.1 nM
[3]; [5]
  EC50: < 1000 nM
